# Measured values published in article PMC9944328 (Nature Communications, 2023).
# Values joined by “and” are separate entries in the source; they are usually repeats but may differ in a detail not shown here. Equal entries are not always repeated.
# Biological target: SSTR2 (Homo sapiens, UniProt P30874)
# Assay: NanoBiT β-arrestin 1 recruitment assay, HEK293 (SSTR2 wild-type);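 for Best-fit Bottom: percent of maximal wild-type SSTR2 response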;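 for Best-fit Top: percent of maximal wild-type SSTR2 response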;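 for Bottom (best-fit): percent of maximal wild-type response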;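 for Span (best-fit value): percent of maximal wild-type response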;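 for Top (best-fit value): percent of maximal wild-type response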
# Type: cell-based
# Set-up: Human full-length SSTR wild-type and mutant vectors were C-terminally fused; expressed in transfected cells; host or cells: HEK293; Best-fit values Bottom / Best-fit values Top / Best-fit values Span / Best-fit Bottom / Best-fit Top / Best-fit Span: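 percent of maximal wild-type SSTR2 response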
# Conditions: for β-arrestin recruitment: compared with octreotide, Fig. 1c
# Description: The NanoBiT β-arrestin 1 recruitment assays were carried out according to the method described previously. […] Human full-length SSTR wild-type and mutant vectors were C-terminally fused with a 15-amino acid flexible linker and the small fragment (SmBiT). HEK293 cells were seeded into six-well microplates at a density of 1.0 × 10^6 cells/well and cultured for 24 h at 37 °C with 5% CO2. After that, cells were co-transfected with pcDNA3.1+ vectors encoding SSTR wild-type or mutants and human β-arrestin 1. After transfecting for 24 h, the transfected cells were suspended and seeded into white 96-well plates, and then cultured at 37 °C overnight. After that the medium in each well was exchanged for 90 μl of 0.01% bovine serum albumin containing 20 μl of 50 μM coelenterazine h (Carbosynth) diluted in the HBSS assay buffer and incubated for 40 min at room temperature. Then, ligands diluted in the assay buffer was added to each well and the luminescence intensity was measured using the Synergy H1 microplate reader and detected at room temperature in a time period. All data presented are means of at least three independent experiments.
# [1] = SSTR2-WT control of I284A-1, T194A-1, I195A-3, L99A-3, Q102A-1
# [2] = SSTR2-WT control of I284A-2/-3, T194A-2/-3, L99A-1/-2, Q102A-3
# SSTR2, sequence (P30874 whole entry): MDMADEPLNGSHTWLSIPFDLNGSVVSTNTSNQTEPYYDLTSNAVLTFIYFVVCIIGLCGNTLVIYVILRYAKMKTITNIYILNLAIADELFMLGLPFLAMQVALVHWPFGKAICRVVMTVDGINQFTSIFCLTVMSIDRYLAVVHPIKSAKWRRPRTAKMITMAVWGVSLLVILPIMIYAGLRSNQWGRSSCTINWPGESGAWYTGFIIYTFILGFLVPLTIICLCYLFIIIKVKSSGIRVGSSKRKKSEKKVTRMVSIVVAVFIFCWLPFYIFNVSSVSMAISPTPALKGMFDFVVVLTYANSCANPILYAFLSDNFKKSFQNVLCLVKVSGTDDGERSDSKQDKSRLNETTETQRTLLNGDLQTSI
# SSTR2, sequence (P49407 whole entry partner): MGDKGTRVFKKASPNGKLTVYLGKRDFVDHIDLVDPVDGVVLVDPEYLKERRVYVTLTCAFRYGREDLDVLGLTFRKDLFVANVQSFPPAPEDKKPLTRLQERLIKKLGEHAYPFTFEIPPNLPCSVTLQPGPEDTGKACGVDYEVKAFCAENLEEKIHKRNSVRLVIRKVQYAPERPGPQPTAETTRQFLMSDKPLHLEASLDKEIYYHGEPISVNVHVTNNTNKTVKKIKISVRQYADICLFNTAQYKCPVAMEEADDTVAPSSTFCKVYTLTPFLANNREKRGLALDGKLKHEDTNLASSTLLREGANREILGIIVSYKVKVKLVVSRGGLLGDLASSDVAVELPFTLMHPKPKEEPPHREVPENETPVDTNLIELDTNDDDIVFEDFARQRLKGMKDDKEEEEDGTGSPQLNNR
compound,measurement,setting,value
N#Cc1cccc(-c2ccc3ncc(-c4cc(F)cc(F)c4)c(N4CCC(N)CC4)c3c2)c1O [paltusotine],EC50,"Best-fit EC50, SSTR2-WT control of I284A-1, T194A-1, I195A-3, L99A-3",420 nM
same,EC50,"Best-fit EC50, SSTR2-WT control of I284A-2/-3, T194A-2/-3, L99A-1/-2",455 nM
same,EC50,"Best-fit EC50, SSTR2-WT-1 control of I195A-1",306 nM
same,EC50,"Best-fit EC50, SSTR2-WT-1 control of Y50A-1",216 nM
same,EC50,"Best-fit EC50, SSTR2-WT-2 control of I195A-2",295 nM
same,EC50,"Best-fit EC50, SSTR2-WT-2 control of Y50A-2",272 nM
same,EC50,"Best-fit EC50, SSTR2-WT-3 control of Y50A-3",306 nM
same,EC50,"EC50 (best-fit value), SSTR2-WT, run WT-1",455 nM and 420 nM and 141 nM and 1270 nM and 292 nM
same,EC50,"EC50 (best-fit value), SSTR2-WT, run WT-2",455 nM and 399 nM and 131 nM and 141 nM and 613 nM
same,EC50,"EC50 (best-fit value), SSTR2-WT, run WT-3",726 nM and 216 nM and 292 nM and 131 nM and 538 nM and 455 nM
same,EC50,"EC50 (best-fit), WT-1 (D122A set)",420 nM
same,EC50,"EC50 (best-fit), WT-1 (F127A set)",307 nM
same,EC50,"EC50 (best-fit), WT-1 (I130A set)",292 nM
same,EC50,"EC50 (best-fit), WT-1 (Q102A set)",420 nM
same,EC50,"EC50 (best-fit), WT-1 (Q126A set)",306 nM
same,EC50,"EC50 (best-fit), WT-1 (V103A set)",306 nM
same,EC50,"EC50 (best-fit), WT-2 (D122A set)",399 nM
same,EC50,"EC50 (best-fit), WT-2 (F127A set)",272 nM
same,EC50,"EC50 (best-fit), WT-2 (I130A set)",141 nM
same,EC50,"EC50 (best-fit), WT-2 (Q102A set)",339 nM
same,EC50,"EC50 (best-fit), WT-2 (Q126A set)",455 nM
same,EC50,"EC50 (best-fit), WT-2 (V103A set)",295 nM
same,EC50,"EC50 (best-fit), WT-3 (D122A set)",455 nM
same,EC50,"EC50 (best-fit), WT-3 (F127A set)",292 nM
same,EC50,"EC50 (best-fit), WT-3 (Q102A set)",455 nM
same,EC50,"EC50 (best-fit), WT-3 (Q126A set)",455 nM
same,EC50,"EC50 (best-fit), WT-3 (V103A set)",306 nM
same,EC50,"EC50 (β-arrestin1 recruitment), best-fit, WT-1 (SSTR2-WT set up beside each mutant)",420 nM and 455 nM and 529 nM
same,EC50,"EC50 (β-arrestin1 recruitment), best-fit, WT-2 (SSTR2-WT set up beside each mutant)",455 nM and 420 nM and 613 nM
same,EC50,"EC50 (β-arrestin1 recruitment), best-fit, WT-3 (SSTR2-WT set up beside each mutant)",420 nM and 538 nM
same,EC50,"EC50, β-arrestin recruitment, SSTR2 WT, n=6",406 ± 5.62 nM
same,Emax,HEK293,100%
same,Best-fit Span,"SSTR2-WT control of I284A-1, T194A-1, I195A-3, L99A-3",106.9
same,Best-fit Bottom,[1],1.007
same,Best-fit LogEC50,[1],-6.376
same,Best-fit Top,[1],107.9
same,Best-fit Span,"SSTR2-WT control of I284A-2/-3, T194A-2/-3, L99A-1/-2",106.4
same,Best-fit Bottom,[2],0.9805
same,Best-fit LogEC50,[2],-6.342
same,Best-fit Top,[2],107.4
same,Best-fit Bottom,SSTR2-WT-1 control of I195A-1,0.5008
same,Best-fit LogEC50,SSTR2-WT-1 control of I195A-1,-6.514
same,Best-fit Span,SSTR2-WT-1 control of I195A-1,104.2
same,Best-fit Top,SSTR2-WT-1 control of I195A-1,104.7
same,Best-fit Bottom,SSTR2-WT-1 control of Y50A-1,-1.342
same,Best-fit LogEC50,SSTR2-WT-1 control of Y50A-1,-6.666
same,Best-fit Span,SSTR2-WT-1 control of Y50A-1,105.2
same,Best-fit Top,SSTR2-WT-1 control of Y50A-1,103.8
same,Best-fit Bottom,SSTR2-WT-2 control of I195A-2,0.4349
same,Best-fit LogEC50,SSTR2-WT-2 control of I195A-2,-6.531
same,Best-fit Span,SSTR2-WT-2 control of I195A-2,102.7
same,Best-fit Top,SSTR2-WT-2 control of I195A-2,103.1
same,Best-fit Bottom,SSTR2-WT-2 control of Q102A-2,-0.0463
same,Best-fit LogEC50,SSTR2-WT-2 control of Q102A-2,-6.469
same,Best-fit Bottom,SSTR2-WT-2 control of Y50A-2,-1.812
same,Best-fit LogEC50,SSTR2-WT-2 control of Y50A-2,-6.566
same,Best-fit Span,SSTR2-WT-2 control of Y50A-2,107.5
same,Best-fit Top,SSTR2-WT-2 control of Y50A-2,105.7
same,Best-fit Bottom,SSTR2-WT-3 control of Y50A-3,-2.538
same,Best-fit LogEC50,SSTR2-WT-3 control of Y50A-3,-6.515
same,Best-fit Span,SSTR2-WT-3 control of Y50A-3,108.6
same,Best-fit Top,SSTR2-WT-3 control of Y50A-3,106.1
same,Span (best-fit value),"SSTR2-WT, run WT-1",106.4 and 106.9 and 102.6 and 115.9 and 106
same,Top (best-fit value),"SSTR2-WT, run WT-1",107.4 and 107.9 and 101.5 and 113.5 and 105.5
same,Span (best-fit value),"SSTR2-WT, run WT-2",106.4 and 103.6 and 103.9 and 102.6 and 106.8
same,Top (best-fit value),"SSTR2-WT, run WT-2",107.4 and 106.9 and 102.6 and 101.5 and 107.6
same,Span (best-fit value),"SSTR2-WT, run WT-3",112.3 and 105.2 and 106 and 103.9 and 104.9 and 106.4
same,Top (best-fit value),"SSTR2-WT, run WT-3",109 and 103.8 and 105.5 and 102.6 and 107.1 and 107.4
same,β-arrestin recruitment,SSTR2 WT,lower efficacy of β-arrestin recruitment
same,β-arrestin recruitment,"SSTR2 WT, listed as Paltusotine",lower β-arrestin recruitment compared with octreotide
same,Bottom (best-fit),WT-1 (D122A set),1.007
same,LogEC50 (best-fit),WT-1 (D122A set),-6.376
